Experimental findings from PubChem BioAssay AID328 (DTP/NCI, 2004) are described below.

The assay concerns BDF1 mice, P388 leukemia ip, median survival T/C. The assay can be described thus: NCI In Vivo Anticancer Drug Screen. Data for tumor model P388 Leukemia (intraperitoneal) in B6D2F1 (BDF1) mice. Particulars: endpoint: median survival time, higher = longer survival. In outline: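 Steps: implant the tumour, treat one group with compound and another with vehicle, record survival, then divide treated by control.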

The mark [1] stands for this setting: dose: 100.0 mg/kg/injection, schedule: Q01DX009 (ip), vehicle: saline with Tween-80.
Setting [2] is: dose: 200.0 mg/kg/injection, schedule: Q01DX009 (ip), vehicle: saline with Tween-80.
Where [3] appears, read: dose: 400.0 mg/kg/injection, schedule: Q04DX003 (ip), vehicle: saline.
The mark [4] stands for this setting: dose: 25.0 mg/kg/injection, schedule: Q01DX009 (ip), vehicle: saline with Tween-80.
[5] abbreviates: dose: 50.0 mg/kg/injection, schedule: Q01DX009 (ip), vehicle: saline with Tween-80.
Where [6] appears, read: dose: 100.0 mg/kg/injection, schedule: Q04DX003 (ip), vehicle: saline with Tween-80.
[7] abbreviates: dose: 200.0 mg/kg/injection, schedule: Q04DX003 (ip), vehicle: saline with Tween-80.
Where [8] appears, read: dose: 25.0 mg/kg/injection, schedule: Q04DX003 (ip), vehicle: saline with Tween-80.
[9] abbreviates: dose: 50.0 mg/kg/injection, schedule: Q04DX003 (ip), vehicle: saline with Tween-80.

Where “and” joins values, the source holds several entries; their conditions need not be identical. Equal values may be shown once. Toxic doses and inconclusive results are not listed.

As to `c1cc[c]([Pb]([c]2ccccc2)([c]2ccccc2)[n]2c3ccccc3c3ccccc32)cc1`, the T/C (dose: 0.19 mg/kg/injection, schedule: Q01DX009 (ip), vehicle: saline) is 90 % of control; the T/C (dose: 0.39 mg/kg/injection, schedule: Q01DX009 (ip), vehicle: saline) was 100 % of control; the T/C (dose: 0.78 mg/kg/injection, schedule: Q01DX009 (ip), vehicle: saline) was 95 % of control; the T/C (dose: 1.56 mg/kg/injection, schedule: Q01DX009 (ip), vehicle: saline) is 100 % of control; the T/C (dose: 3.0 mg/kg/injection, schedule: Q04DX003 (ip), vehicle: saline) was 112 % of control; the T/C (dose: 4.12 mg/kg/injection, schedule: Q01DX009 (ip), vehicle: saline) is 100 % of control. In addition, the T/C (dose: 6.0 mg/kg/injection, schedule: Q04DX003 (ip), vehicle: saline) is 116 % of control and the T/C (dose: 12.0 mg/kg/injection, schedule: Q04DX003 (ip), vehicle: saline) was 104 % of control.
On to `COC(=O)N1c2ccc(OC)cc2C=CC1C#N` (configuration not stated), for which the T/C under setting [1] was 100 % of control; the T/C under setting [2] was 100 % of control; the T/C (dose: 400.0 mg/kg/injection, schedule: Q01DX009 (ip), vehicle: saline with Tween-80) was 100 % of control.
In the case of `C[C@@H]1C[C@@]2(C)[C@@H](CC[C@@H]3[C@@H]2CC[C@]2(C)OC(=O)CC[C@@H]32)CC1=O`, the T/C reads like this: (dose: 100.0 mg/kg/injection, schedule: Q04DX003 (ip), vehicle: alcohol) 105 % of control; (dose: 200.0 mg/kg/injection, schedule: Q04DX003 (ip), vehicle: alcohol) 95 % of control; (dose: 264.0 mg/kg/injection, schedule: Q04DX003 (ip), vehicle: saline) 95 % of control and 110 % of control; under setting [3], 105 % of control.
Turning to `CCN(CC)CCCC(C)NC(=O)c1cc(=O)[nH]c(=O)[nH]1` (configuration not stated), the T/C (dose: 25.0 mg/kg/injection, schedule: Q01DX009 (ip), vehicle: water) was 103 % of control; the T/C (dose: 50.0 mg/kg/injection, schedule: Q01DX009 (ip), vehicle: water) was 106 % of control; the T/C (dose: 100.0 mg/kg/injection, schedule: Q01DX009 (ip), vehicle: water) was 100 % of control; the T/C (dose: 100.0 mg/kg/injection, schedule: Q04DX003 (ip), vehicle: water) was 100 % of control; the T/C (dose: 200.0 mg/kg/injection, schedule: Q04DX003 (ip), vehicle: water) is 98 % of control.
On to `C=CCN(CC=C)c1ncnc2[nH]ncc12`, for which the T/C is 100 % of control under setting [4], 100 % of control under setting [5] and 109 % of control under setting [1].
As for `CCOC(=O)CC(=O)N/N=C(/C)C(=O)OCC`, the T/C is, setting by setting: under setting [1], 108 % of control; under setting [6], 88 % of control; under setting [2], 99 % of control; under setting [7], 97 % of control; (dose: 400.0 mg/kg/injection, schedule: Q04DX003 (ip), vehicle: saline with Tween-80) 111 % of control.
For the compound `Nc1cc(C(F)(F)F)ccc1S(=O)(=O)O`, the T/C reads like this: (dose: 100.0 mg/kg/injection, schedule: Q01DX001 (ip), vehicle: Klucel (hydroxypropylcellulose) (HPC)) 100 % of control; (dose: 200.0 mg/kg/injection, schedule: Q01DX001 (ip), vehicle: Klucel (hydroxypropylcellulose) (HPC)) 100 % of control; (dose: 400.0 mg/kg/injection, schedule: Q01DX001 (ip), vehicle: Klucel (hydroxypropylcellulose) (HPC)) 100 % of control.
Take `O=C1OC2C(I)C3CCC2C1C3` (configuration not stated): the T/C (dose: 100.0 mg/kg/injection, schedule: Q01DX009 (ip), vehicle: saline) was 105 % of control; the T/C (dose: 100.0 mg/kg/injection, schedule: Q04DX003 (ip), vehicle: saline) was 121 % of control; the T/C (dose: 200.0 mg/kg/injection, schedule: Q01DX009 (ip), vehicle: saline) is 115 % of control; the T/C (dose: 200.0 mg/kg/injection, schedule: Q04DX003 (ip), vehicle: saline) was 95 % of control; the T/C under setting [3] was 95 % of control.
Consider `CCCCOC1OC[N+](C)(C)CC1(C)C` (configuration not stated), for which the T/C is, setting by setting: under setting [8], 102 % of control; under setting [9], 105 % of control; under setting [6], 100 % of control and 105 % of control.
Regarding `COc1cc2c(c(OC)c1OC)-c1cc3c(cc1C(=O)[C@@H]1COC(=O)[C@@H]21)OCO3`, the T/C is 109 % of control (dose: 1.3 mg/kg/injection, schedule: Q01DX009 (ip), vehicle: saline); 95 % of control (dose: 2.0 mg/kg/injection, schedule: Q01DX009 (ip), vehicle: saline); 95 % of control (dose: 3.0 mg/kg/injection, schedule: Q01DX009 (ip), vehicle: saline); 100 % of control (dose: 5.3 mg/kg/injection, schedule: Q01DX009 (ip), vehicle: saline with Tween-80); 100 % of control (dose: 8.0 mg/kg/injection, schedule: Q01DX009 (ip), vehicle: saline with Tween-80); 95 % of control (dose: 12.0 mg/kg/injection, schedule: Q01DX009 (ip), vehicle: saline with Tween-80). For the same compound, the T/C by setting is: (dose: 21.4 mg/kg/injection, schedule: Q01DX009 (ip), vehicle: saline) 105 % of control; (dose: 32.0 mg/kg/injection, schedule: Q01DX009 (ip), vehicle: saline) 110 % of control; (dose: 48.0 mg/kg/injection, schedule: Q01DX009 (ip), vehicle: saline) 110 % of control.
On to `CCOC(=O)c1ccc2c3c([nH]c2c1C)-c1ccccc1CC3`, for which the T/C is 120 % of control under setting [5], 111 % of control under setting [1] and 118 % of control under setting [2].
Turning to `COc1cc2c(cc1OC)-c1ccc3cc4c(cc3c1N(C)C2)OCO4`, the T/C is 123 % of control (dose: 10.0 mg/kg/injection, schedule: Q01DX009 (ip), vehicle: other) and 155 % of control (dose: 40.0 mg/kg/injection, schedule: Q01DX009 (ip), vehicle: other).
`O=C(O)c1ccccc1C(=O)OC1=CS(=O)(=O)CC1`: the T/C by setting is: (dose: 50.0 mg/kg/injection, schedule: Q01DX001 (ip), vehicle: saline with Tween-80) 93 % of control; (dose: 100.0 mg/kg/injection, schedule: Q01DX001 (ip), vehicle: saline with Tween-80) 96 % of control; (dose: 200.0 mg/kg/injection, schedule: Q01DX001 (ip), vehicle: saline with Tween-80) 97 % of control; (dose: 400.0 mg/kg/injection, schedule: Q01DX001 (ip), vehicle: saline with Tween-80) 110 % of control.
Regarding `S=c1[nH]nc2n1NC(c1ccoc1)=NN2`, the T/C was 122 % of control under setting [8], 100 % of control under setting [9] and 113 % of control under setting [6].
As to `Cc1ccc(C)c(C(=O)C2CC2)c1`, the T/C is 100 % of control under setting [9]; 100 % of control under setting [1]; 120 % of control under setting [6]; 103 % of control (dose: 150.0 mg/kg/injection, schedule: Q01DX009 (ip), vehicle: saline with Tween-80); 110 % of control under setting [2]; 100 % of control under setting [7].
For `CCCCCCC(=O)/C=C/c1ccc(OC)cc1`, the T/C reads like this: under setting [5], 94 % of control; under setting [1], 103 % of control; under setting [2], 90 % of control.
As for `CCCCC(OC(=O)c1ccccc1)c1cc(OC(=O)c2ccccc2)c2c(c1OC(=O)c1ccccc1)CC(C)=C(C)C2` (configuration not stated), the T/C by setting is: (dose: 12.5 mg/kg/injection, schedule: Q04DX003 (ip), vehicle: saline with Tween-80) 111 % of control; under setting [8], 107 % of control.
In the case of `COc1cc2c3c(c1)/C(=N\N)CCN3CCC2`, the T/C was 110 % of control under setting [4]; 110 % of control under setting [5]; 113 % of control under setting [9]; 100 % of control under setting [1]; 95 % of control under setting [6]; 100 % of control under setting [7].
On to `CC1=C(CO)C(=O)O[C@@H]([C@@H](C)[C@H]2CC[C@H]3[C@@H]4C[C@H]5O[C@]56[C@@H](O)C=CC(=O)[C@]6(C)[C@H]4CC[C@]23C)C1`, for which the T/C is 95 % of control (dose: 5.0 mg/kg/injection, schedule: Q01DX010 (ip), vehicle: steriod suspending solution); 100 % of control (dose: 10.0 mg/kg/injection, schedule: Q01DX010 (ip), vehicle: steriod suspending solution); 90 % of control (dose: 20.0 mg/kg/injection, schedule: Q01DX010 (ip), vehicle: steriod suspending solution); 104 % of control (dose: 40.0 mg/kg/injection, schedule: Q01DX010 (ip), vehicle: steriod suspending solution).
As for `Cc1ccc(C(=O)N=[N+]=[N-])o1`, under setting [5], the T/C was 108 % of control.
